The results in this text go back to BindingDB's records for doi:10.1124/jpet.300.1.305 (Merck Research Laboratories, 2002).

Square brackets hold non-standard residues; d marks the D form. Peptide text beside a SMILES is read from it. NMeR = CN[C@@H](CCCNC(=N)N)C(=O)O; Tle = CC(C)(C)[C@H](N)C(=O)O

Test [1] concerns the target Neurotensin receptor type 1 (Mus musculus, UniProt O88319).
The target of test [2] is Neurotensin receptor type 2 (Mus musculus, UniProt P70310).
Sequence of Neurotensin receptor type 2 (P70310 whole entry): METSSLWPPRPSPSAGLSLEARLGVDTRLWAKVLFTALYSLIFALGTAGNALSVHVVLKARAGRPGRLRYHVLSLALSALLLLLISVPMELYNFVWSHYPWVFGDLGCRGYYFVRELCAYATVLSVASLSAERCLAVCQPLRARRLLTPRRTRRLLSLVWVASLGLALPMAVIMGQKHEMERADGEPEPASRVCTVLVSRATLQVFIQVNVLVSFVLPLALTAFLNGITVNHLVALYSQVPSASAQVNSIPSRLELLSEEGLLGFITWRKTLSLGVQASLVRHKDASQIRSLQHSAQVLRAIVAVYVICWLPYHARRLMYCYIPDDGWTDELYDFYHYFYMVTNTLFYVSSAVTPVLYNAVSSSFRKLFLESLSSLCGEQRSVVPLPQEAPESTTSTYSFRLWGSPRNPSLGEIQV

Sequence of Neurotensin receptor type 1 (O88319 whole entry): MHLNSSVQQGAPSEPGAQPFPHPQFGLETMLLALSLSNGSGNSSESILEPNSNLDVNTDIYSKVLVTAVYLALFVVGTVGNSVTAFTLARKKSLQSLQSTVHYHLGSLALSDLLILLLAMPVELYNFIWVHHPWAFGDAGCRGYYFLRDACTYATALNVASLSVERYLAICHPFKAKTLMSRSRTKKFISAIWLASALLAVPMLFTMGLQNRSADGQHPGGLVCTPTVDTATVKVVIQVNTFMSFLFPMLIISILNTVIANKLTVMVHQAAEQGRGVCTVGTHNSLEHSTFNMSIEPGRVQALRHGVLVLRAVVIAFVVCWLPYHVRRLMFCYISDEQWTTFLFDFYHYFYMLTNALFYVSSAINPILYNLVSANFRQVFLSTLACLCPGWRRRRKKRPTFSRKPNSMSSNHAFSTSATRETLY

On to `CN[C@@H](CCCNC(=N)N)C(=O)N[C@@H](CCCCN)C(=O)N1CCC[C@H]1C(=O)N[C@@H](Cc1c[nH]c2ccccc12)C(=O)N[C@H](C(=O)N[C@@H](CC(C)C)C(=O)O)C(C)(C)C` (H-[NMeR]KPW[Tle]L-OH), for which the Ki in test [1] was 0.11 nM; in test [2] it was 3.8 nM.
Consider `CC1CN(C2CCC(C#N)(c3ccc(F)cc3)CC2)CCC1(C(=O)O)c1ccccc1` (stereo not given) [NSC_54385], for which the Ki in test [2] is 17 nM.
Take H-KNPYIL-OH [NSC_128644]: the Ki turned out to be 0.25 nM in test [1] and 7 nM in test [2].

For orientation: Ki means the equilibrium dissociation constant of an inhibitor or competing ligand from its target. Higher therefore signals weaker binding.
